Where two headings read alike, the source gives them in different places.

The values below come from patent US20060148858A1, “1, 2-Azole derivatives with hypoglycemic and hypolipidemic activity” (priority 2002, published 2006).

The test system of series [1] is KKAY mice. Nature of the series: Hypoglycemic and hypolipidemic actions in mice (Test Example 1). The format is in vivo. As to conditions: Mus musculus, po, 96 h, 0.005% in powdery diet, four days, non-treated group taken as 100%. Summed up: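 KKAY mice (9 to 12 weeks old, 5 per group) were fed diet containing 0.005% test compound ad libitum for four days. Plasma glucose and triglycerides from orbital venous blood were measured enzymatically, reported as % decrease relative to untreated group (100%).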

Series [2] deals with KKAY mice. Nature of the series: Plasma anti-arteriosclerosis index-enhancing action in mice (Test Example 2). The class given is in vivo. The conditions noted are these: Mus musculus, po, 96 h, 0.005% in powdery diet, four days, percent increase of (HDL cholesterol/total cholesterol)x100, non-treatment group taken as 100%. The protocol: Test compounds were mixed in a powdery diet (CE-2, Japan Clea) at the concentration of 0.005%, and freely given to KKAY mice (9 to 12 weeks old, 5 mice per group), a model of obese and non-insulin dependent diabetes (type 2 diabetes), for four days. During this period, water was given freely. Blood was sampled from orbital venous plexus and components in plasma separated from blood were determined. Total cholesterol levels were determined by using L type Wako Cholesterol (Wako Pure Chemical Industries, Ltd.). Precipitation reagent for HDL cholesterol (Wako Pure Chemical Industries, Ltd.) was added to a part of the plasma to precipitate non-HDL lipoprotein, and cholesterol (HDL cholesterol) in the resulting supernatant was determined. The plasma anti-arteriosclerosis index [(HDL cholesterol/total cholesterol)×100] was calculated by using these cholesterol levels.
In the Table, “Plasma anti-arteriosclerosis index-enhancing action (%)” represents the percent increase (%) of plasma anti-arteriosclerosis index in the treatment group, when the plasma anti-arteriosclerosis index in the non-treatment group is taken as 100%.

A further series has as its target T1, PPARγ-RXRα heterodimer (Homo sapiens, UniProt P37231).
T1 construct: expressed in transfected cells; host or cells: CHO-K1
T1 sequence (P37231 1-477 isoform P37231-2): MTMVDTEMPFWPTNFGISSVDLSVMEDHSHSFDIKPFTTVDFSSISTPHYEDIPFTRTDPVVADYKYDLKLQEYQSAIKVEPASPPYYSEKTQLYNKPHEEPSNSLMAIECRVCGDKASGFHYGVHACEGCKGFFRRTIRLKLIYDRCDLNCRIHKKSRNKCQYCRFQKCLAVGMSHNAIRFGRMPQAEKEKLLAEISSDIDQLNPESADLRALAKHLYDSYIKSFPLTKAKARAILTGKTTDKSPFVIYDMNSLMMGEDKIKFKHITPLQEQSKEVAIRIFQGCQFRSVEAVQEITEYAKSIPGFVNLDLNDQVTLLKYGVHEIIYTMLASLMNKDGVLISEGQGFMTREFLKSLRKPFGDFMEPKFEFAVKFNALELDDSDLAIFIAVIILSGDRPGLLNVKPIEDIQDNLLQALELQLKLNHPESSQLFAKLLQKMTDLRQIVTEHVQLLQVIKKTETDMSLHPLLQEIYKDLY
T1 sequence (P19793 1-462 partner): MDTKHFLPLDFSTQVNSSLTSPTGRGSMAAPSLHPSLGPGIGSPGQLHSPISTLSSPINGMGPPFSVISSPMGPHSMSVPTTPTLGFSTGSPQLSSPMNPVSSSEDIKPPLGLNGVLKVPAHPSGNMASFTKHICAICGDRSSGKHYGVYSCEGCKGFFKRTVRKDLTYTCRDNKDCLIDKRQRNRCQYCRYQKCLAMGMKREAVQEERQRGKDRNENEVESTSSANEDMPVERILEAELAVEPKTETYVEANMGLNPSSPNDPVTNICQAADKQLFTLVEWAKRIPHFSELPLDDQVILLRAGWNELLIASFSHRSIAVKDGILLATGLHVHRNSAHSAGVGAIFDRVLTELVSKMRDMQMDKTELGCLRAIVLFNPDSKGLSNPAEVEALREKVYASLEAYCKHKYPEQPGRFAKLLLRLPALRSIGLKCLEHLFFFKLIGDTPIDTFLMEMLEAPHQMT
Nature of the series: PPARγ-RXRα heterodimer ligand activity, luciferase reporter in PPARγ:RXRα:4ERPP/CHO-K1 cells (Test Example 3). The format is cell-based. As to conditions: 18-48 hours, concentration for 50% of the maximum fold induction. In a few lines: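 Stable CHO-K1 line co-expressing hPPARγ/RXR with 4ERPP-TK luciferase reporter, 2×10^4 cells per well, treated 18-48 h at 37° C. in HAM F12 with 0.1% fatty acid-free BSA. Luciferase fold induction versus untreated taken as 1; EC50 is concentration giving 50% of maximal fold induction.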

Where [3] appears, read: rate of decrease in blood glucose level, read-out: Hypoglycemic action (%).
[4] abbreviates: rate of decrease in blood triglyceride level, read-out: Hypolipidemic action (%).

On to `CCCc1nn(-c2ccc(C(F)(F)F)cn2)cc1CCCOc1cccc(OC(C)(C)C(=O)O)c1` [Example 41, 2-methyl-2-[3-(3-{3-propyl-1-[5-(trifluoromethyl)-2-pyridyl]-1H-pyrazol-4-yl}propoxy)phenoxy]propionic acid], for which the melting point lay within 99 to 100 °C. Also, the inhibition in vivo at 0.005 % in diet in the series with KKAY mice [1] (setting [3]) is 25%. Also, the inhibition in vivo at 0.005 % in diet in the series on KKAY mice [1] (setting [4]) was 48%. Also, in the series on KKAY mice [2], the change in vivo at 0.005 % in diet was found to be 12%. The molecule also showed an EC50 on PPARγ-RXRα heterodimer of 77 nM.
With `CCOc1nn(-c2ccc(C(F)(F)F)cn2)cc1CCCOc1cccc(OC(C)(C)C(=O)O)c1` [Example 29, 2-[3-(3-{3-ethoxy-1-[5-(trifluoromethyl)-2-pyridyl]-1H-pyrazol-4-yl}propoxy)phenoxy]-2-methylpropionic acid], the melting point fell in the range of 120 to 121 °C. In addition, the inhibition in vivo at 0.005 % in diet in the series with KKAY mice [1] (setting [3]) came to 46%. Moreover, the inhibition in vivo at 0.005 % in diet in the series on KKAY mice [1] (setting [4]) worked out at 65%. Besides, the change in vivo at 0.005 % in diet with KKAY mice [2] was 23%. A half-maximal response at PPARγ-RXRα heterodimer (EC50) required 160 nM.
The like results for `Cc1cccc(CC(=O)O)c1OCCCc1cn(-c2ccc(C(F)(F)F)cn2)nc1C(C)C` [Example 315, [2-(3-{3-isopropyl-1-[5-(trifluoromethyl)-2-pyridinyl]-1H-pyrazol-4-yl}propoxy)-3-methylphenyl]acetic acid] were, in that order, 159 to 160 °C, 53%, 70%, 11% and 35 nM.
The like results for `CC(C)c1nn(-c2ccc(C(F)(F)F)cn2)cc1CCCOc1cccc(OC(C)(C)C(=O)O)c1` [Example 28, 2-[3-{3-(3-isopropyl-1-[5-(trifluoromethyl)-2-pyridyl]-1H-pyrazol-4-yl}propoxy)phenoxy]-2-methylpropionic acid] were, in that order, 101 to 102 °C, 42%, 56%, 18% and 35 nM.
